tested on: human cervical tumor cell line HeLa (ATCC CCL-2); assay: SAC-Formation - Paclitaxel-Induced Assay; assay type: cell-based; details: Homo sapiens, HeLa, 24 h, HeLa cells, paclitaxel 0.05 μM, test range 0.005 μM-20 μM, read-out: IC50 [mol/l] SAC-Formation - Paclitaxel-Induced Assay
How it was run: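 Read-out is high-content imaging of anti-phospho-H3 Ser10 (mitosis) and Hoechst 33342 (DNA, cell number), with decreased mitotic fraction marking checkpoint breakthrough. Compounds (0.005–20 μM) and 0.05 μM paclitaxel co-added to overnight-plated HeLa for 24 h at 37° C; four-parameter Hill fit.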

Structure (SMILES) | IC50 [µM]
Cc1nsc(Nc2cncc(C(F)(F)F)n2)c1C(=O)Nc1ccc(OCCNC(=O)OC(C)(C)C)c(F)c1 [Example 216, tert-butyl [2-(2-fluoro-4-{[(3-methyl-5-{[6-(trifluoromethyl)pyrazin-2-yl]amino}-1,2-thiazol-4-yl)carbonyl]amino}phenoxy)ethyl]carbamate] | 0.14
Cc1nsc(Nc2cnc3ccccc3n2)c1C(=O)Nc1ccc(Oc2cccnc2)nc1 [Example 231, 3-methyl-N-[6-(pyridin-3-yloxy)pyridin-3-yl]-5-(quinoxalin-2-ylamino)-1,2-thiazole-4-carboxamide] | 0.26
Cc1nsc(Nc2cc(C#N)ccn2)c1C(=O)Nc1ccc(Oc2cccc(C(F)(F)F)c2)nc1 [Example 230, 5-[(4-cyanopyridin-2-yl)amino]-3-methyl-N-{6-[3-(trifluoromethyl)phenoxy]pyridin-3-yl}-1,2-thiazole-4-carboxamide] | 0.082
CNC(=O)c1ccc(NC(=O)c2c(C)nsc2Nc2cnc3ccccc3n2)cc1F [Example 207, N-[3-fluoro-4-(methylcarbamoyl)phenyl]-3-methyl-5-(quinoxalin-2-ylamino)-1,2-thiazole-4-carboxamide] | 0.076
Cc1nsc(Nc2cnc3ccccc3n2)c1C(=O)Nc1ccc(Oc2ccc(SC(F)(F)F)cc2)nc1 [Example 233, 3-methyl-5-(quinoxalin-2-ylamino)-N-(6-{4-[(trifluoromethyl)sulfanyl]phenoxy}pyridin-3-yl)-1,2-thiazole-4-carboxamide] | 4.1
Cc1nsc(Nc2ccc(C#N)cn2)c1C(=O)Nc1ccc(F)c(C(N)=O)c1 [Example 203, N-(3-carbamoyl-4-fluorophenyl)-5-[(5-cyanopyridin-2-yl)amino]-3-methyl-1,2-thiazole-4-carboxamide] | 8.5
Cc1nsc(Nc2cnc3ccccc3n2)c1C(=O)Nc1ccc(NCCC(=O)OC(C)(C)C)nc1 [Example 236, tert-butyl N-[5-({[3-methyl-5-(quinoxalin-2-ylamino)-1,2-thiazol-4-yl]carbonyl}amino)pyridin-2-yl]-beta-alaninate] | 20
Cc1nsc(Nc2cncc(C(F)(F)F)n2)c1C(=O)Nc1ccc(OC2CCNCC2)nc1 [Example 13, 3-Methyl-N-[6-(piperidin-4-yloxy)pyridin-3-yl]-5-{[6-(trifluoromethyl)pyrazin-2-yl]-amino}-1,2-thiazole-4-carboxamide] | 13
Cc1nsc(Nc2cncc(C(F)(F)F)n2)c1C(=O)Nc1ccc(C(=O)OC(C)(C)C)cc1 [Example 193, tert-butyl tert-butyl 4-{[(3-methyl-5-{[6-(trifluoromethyl)pyrazin-2-yl]amino}-1,2-thiazol-4-yl)carbonyl]amino}benzoate] | 0.51
Cc1nsc(Nc2ccc(C#N)cn2)c1C(=O)Nc1cccc(N)c1 [Example 180, N-(3-aminophenyl)-5-[(5-cyanopyridin-2-yl)amino]-3-methyl-1,2-thiazole-4-carboxamide] | 4.3
Cc1nsc(Nc2cc(C#N)ccn2)c1C(=O)Nc1cccc(C(=O)NC2CC2)c1 [Example 175, 5-[(4-cyanopyridin-2-yl)amino]-N-[3-(cyclopropylcarbamoyl)phenyl]-3-methyl-1,2-thiazole-4-carboxamide] | 2.6
COc1ccc(NC(=O)c2c(C)nsc2Nc2cnc3ccccc3n2)c(CC#N)n1 [Example 235, N-[2-(cyanomethyl)-6-methoxypyridin-3-yl]-3-methyl-5-(quinoxalin-2-ylamino)-1,2-thiazole-4-carboxamide] | 1.5
Cc1nsc(Nc2cnc3ccccc3n2)c1C(=O)Nc1cccc(NC(=O)OC(C)(C)C)c1 [Example 178, tert-butyl [3-({[3-methyl-5-(quinoxalin-2-ylamino)-1,2-thiazol-4-yl]carbonyl}amino)-phenyl]carbamate] | 0.26
Cc1nsc(Nc2cnc3ccccc3n2)c1C(=O)Nc1ccc(C(N)=O)c(F)c1 [Example 201, N-(4-carbamoyl-3-fluorophenyl)-3-methyl-5-(quinoxalin-2-ylamino)-1,2-thiazole-4-carboxamide] | 0.22
Cc1nsc(Nc2cnc3ccccc3n2)c1C(=O)Nc1ccccc1S(C)(=O)=O [Example 188, 3-methyl-N-[2-(methylsulfonyl)phenyl]-5-(quinoxalin-2-ylamino)-1,2-thiazole-4-carboxamide] | 10
Cc1nsc(Nc2ccc(C#N)cn2)c1C(=O)Nc1cccc(C(=O)OC(C)(C)C)c1 [Example 240, tert-butyl 3-[({5-[(5-cyanopyridin-2-yl)amino]-3-methyl-1,2-thiazol-4-yl}carbonyl)amino]benzoate] | 0.07

Structure (SMILES) | IC50 [µM]
Cc1nsc(Nc2cncc(C(F)(F)F)n2)c1C(=O)Nc1ccc(C(=O)NCCN2CCCC(F)(F)C2)cc1 [Example 214, N-(4-{[2-(3,3-difluoropiperidin-1-yl)ethyl]carbamoyl}phenyl)-3-methyl-5-{[6-(trifluoromethyl)pyrazin-2-yl]amino}-1,2-thiazole-4-carboxamide] | 1.6
Cc1nsc(Nc2cncc(C(F)(F)F)n2)c1C(=O)Nc1ccc(OC2CCN(CC(F)(F)F)CC2)nc1 [Example 16, 3-Methyl-N-(6-{[1-(2,2,2-trifluoroethyl)piperidin-4-yl]oxy}pyridin-3-yl)-5-{[6-(trifluoromethyl)pyrazin-2-yl]amino}-1,2-thiazole-4-carboxamide] | 0.42
Cc1nsc(Nc2cnc(C(F)(F)F)cn2)c1C(=O)Nc1ccc(OC2CCN(C)CC2)nc1 [Example 220, 3-methyl-N-{6-[(1-methylpiperidin-4-yl)oxy]pyridin-3-yl}-5-{[5-(trifluoromethyl)pyrazin-2-yl]amino}-1,2-thiazole-4-carboxamide] | 0.97
Cc1nsc(Nc2cncc(C(F)(F)F)n2)c1C(=O)Nc1ccc(F)c(C(N)=O)c1 [Example 204, N-(3-carbamoyl-4-fluorophenyl)-3-methyl-5-{[6-(trifluoromethyl)pyrazin-2-yl]amino}-1,2-thiazole-4-carboxamide] | 0.45
Cc1nsc(Nc2cnc3ccccc3n2)c1C(=O)Nc1ccc(NCC2CCN(C(=O)OC(C)(C)C)CC2)nc1 [Example 238, tert-butyl 4-({[5-({[3-methyl-5-(quinoxalin-2-ylamino)-1,2-thiazol-4-yl]carbonyl}amino)pyridin-2-yl]amino}methyl)piperidine-1-carboxylate] | 9.7
Cc1nsc(Nc2cncc(C(F)(F)F)n2)c1C(=O)Nc1ccc(OC2CCN(C)CC2)nc1 [Example 219, 3-methyl-N-{6-[(1-methylpiperidin-4-yl)oxy]pyridin-3-yl}-5-{[6-(trifluoromethyl)pyrazin-2-yl]amino}-1,2-thiazole-4-carboxamide] | 0.66
Cc1nsc(Nc2cnc(C(F)(F)F)cn2)c1C(=O)Nc1ccc(OCCNC(=O)OC(C)(C)C)nc1 [Example 192, tert-butyl {2-[(5-{[(3-methyl-5-{[5-(trifluoromethyl)pyrazin-2-yl]amino}-1,2-thiazol-4-yl)carbonyl]amino}pyridin-2-yl)oxy]ethyl}carbamate] | 0.18
Cc1nsc(Nc2cnc(C(F)(F)F)cn2)c1C(=O)Nc1ccc(F)c(OC2CCN(C(=O)OC(C)(C)C)CC2)c1 [Example 229, tert-butyl 4-(2-fluoro-5-{[(3-methyl-5-{[5-(trifluoromethyl)pyrazin-2-yl]amino}-1,2-thiazol-4-yl)carbonyl]amino}phenoxy)piperidine-1-carboxylate] | 0.36
Cc1nsc(Nc2cncc(C(F)(F)F)n2)c1C(=O)Nc1ccc(OC2CCN(CCF)CC2)nc1 [Example 14, N-(6-{[1-(2-Fluoroethyl)piperidin-4-yl]oxy}pyridin-3-yl)-3-methyl-5-{[6-(trifluoro-methyl)pyrazin-2-yl]amino}-1,2-thiazole-4-carboxamide] | 0.63
Cc1nsc(Nc2cnc(C(F)(F)F)cn2)c1C(=O)Nc1ccc(OCC2CCN(C(=O)OC(C)(C)C)CC2)nc1 [Example 227, tert-butyl 4-{[(5-{[(3-methyl-5-{[5-(trifluoromethyl)pyrazin-2-yl]amino}-1,2-thiazol-4-yl)carbonyl]amino}pyridin-2-yl)oxy]methyl}piperidine-1-carboxylate] | 0.3
Cc1nsc(Nc2cnc(C(F)(F)F)cn2)c1C(=O)Nc1cccc(S(C)(=O)=O)c1 [Example 195, 3-methyl-N-[3-(methylsulfonyl)phenyl]-5-{[5-(trifluoromethyl)pyrazin-2-yl]amino}-1,2-thiazole-4-carboxamide] | 0.52
Cc1nsc(Nc2cnc(C(F)(F)F)cn2)c1C(=O)Nc1ccc(OCCN)nc1 [Example 197, N-[6-(2-aminoethoxy)pyridin-3-yl]-3-methyl-5-{[5-(trifluoromethyl)pyrazin-2-yl]amino}-1,2-thiazole-4-carboxamide] | 0.6
Cc1nsc(Nc2cnc3ccccc3n2)c1C(=O)Nc1ccc(OCCC(=O)OC(C)(C)C)nc1 [Example 198, tert-butyl 3-{[5-({[3-methyl-5-(quinoxalin-2-ylamino)-1,2-thiazol-4-yl]carbonyl}amino)pyridin-2-yl]oxy}propanoate] | 0.74
Cc1nsc(Nc2cncc(C(F)(F)F)n2)c1C(=O)Nc1ccc(OCCCNC(=O)OC(C)(C)C)nc1 [Example 190, tert-butyl {3-[(5-{[(3-methyl-5-{[6-(trifluoromethyl)pyrazin-2-yl]amino}-1,2-thiazoL-4-yl)carbonyl]amino}pyridin-2-yl)oxy]propyl}carbamate] | 0.089
CNS(=O)(=O)c1ccc(NC(=O)c2c(C)nsc2Nc2cnc(C(F)(F)F)cn2)cc1 [Example 212, 3-methyl-N-[4-(methylsulfamoyl)phenyl]-5-{[5-(trifluoromethyl)pyrazin-2-yl]amino}-1,2-thiazole-4-carboxamide] | 4.1
Cc1nsc(Nc2cncc(C(F)(F)F)n2)c1C(=O)Nc1ccc(OC2CCN(CCF)CC2)c(F)c1 [Example 223, N-(3-fluoro-4-{[1-(2-fluoroethyl)piperidin-4-yl]oxy}phenyl)-3-methyl-5-{[6-(trifluoromethyl)pyrazin-2-yl]amino}-1,2-thiazole-4-carboxamide] | 0.11
